Assay results taken from US9476099B2 (TRUSTEES OF DARTMOUTH COLLEGE, priority 2012, dated 2016).

Test system: gene promoters in NT2/D1-R1 control and DNMT3B knockdown cells
Assay: Genome-wide promoter methylation analysis, HumanMethylation27 BeadChip (Table 15)
Format: cell-based, human
Details: sh-ctrl + 5aza
Method: DNA methylation analysis was performed in samples in triplicate using the […] […] assay with the HumanMethylation27 BeadChip ([…]) and the BeadChip was scanned on the BeadArray Reader ([…]), according to the manufacturer's instructions. Raw data was normalized and analyzed with Genome Studio software ([…]). The HumanMethylation27 BeadChip assays 27,578 CpGs covering more than 14,000 genes, mostly from promoter regions. […] Hierarchical clustering was performed as stated above. HumanMethylation27 BeadChip data and gene expression microarray data were submitted to NCBI GEO.

Nc1ncn([C@H]2C[C@H](O)[C@@H](CO)O2)c(=O)n1 [5aza]
SERPING1 cg12783776 promoter methylation Mean: 0.601
SFRS16 cg19317638 promoter methylation Mean: 0.560
SFXN3 cg04880063 promoter methylation Mean: 0.170
SH3BGRL2 cg03080985 promoter methylation Mean: 0.398
SHH cg25167838 promoter methylation Mean: 0.175
SKIP cg04072323 promoter methylation Mean: 0.432
SLC30A2 cg05674944 promoter methylation Mean: 0.658
SMCP cg09542291 promoter methylation Mean: 0.705
SNX9 cg26845300 promoter methylation Mean: 0.985
SOX17 cg21226224 promoter methylation Mean: 0.858
SPRR1B cg24884084 promoter methylation Mean: 0.488
SSH1 cg11747499 promoter methylation Mean: 0.529
SSTR1 cg27590397 promoter methylation Mean: 1.209
TAC1 cg07550362 promoter methylation Mean: 0.798
TADA3L cg09279263 promoter methylation Mean: 0.445
TERT cg02545192 promoter methylation Mean: 0.547
TNFSF10 cg16555388 promoter methylation Mean: 0.687
TNRC4 cg26093148 promoter methylation Mean: 0.866
TNRC15 cg07230446 promoter methylation Mean: 0.425
TRAF3 cg24165760 promoter methylation Mean: 0.878
TRIM2 cg12793610 promoter methylation Mean: 0.815
TRIM36 cg10693071 promoter methylation Mean: 0.822
TRPM3 cg20555507 promoter methylation Mean: 0.413
UNC5D cg00297600 promoter methylation Mean: 0.612
WDR13 cg25053301 promoter methylation Mean: 0.317
ZFHX1B cg15377518 promoter methylation Mean: 0.680
ZNF222 cg09757277 promoter methylation Mean: 0.431
cg07512517 promoter methylation Mean: 0.619
Mean promoter methylation, ABCA3 cg02331561 (NT2/D1-R1 control cells): 0.189
Mean promoter methylation, ABLIM3 cg05026186 (NT2/D1-R1 control cells): 0.365
Mean promoter methylation, ACTL6B cg08572611 (NT2/D1-R1 control cells): 0.210
Mean promoter methylation, ANKRD46 cg23737055 (NT2/D1-R1 control cells): 0.329
Mean promoter methylation, ARNT2 cg17788682 (NT2/D1-R1 control cells): 0.212
Mean promoter methylation, B4GALNT3 cg05769161 (NT2/D1-R1 control cells): 0.577
Mean promoter methylation, BTBD1 cg16958189 (NT2/D1-R1 control cells): 0.392
Mean promoter methylation, C1RL cg22593785 (NT2/D1-R1 control cells): 0.347
Mean promoter methylation, C10orf10 cg17186163 (NT2/D1-R1 control cells): 0.371
Mean promoter methylation, C10orf72 cg02569613 (NT2/D1-R1 control cells): 0.553
Mean promoter methylation, C12orf34 cg01335367 (NT2/D1-R1 control cells): 0.987
Mean promoter methylation, C17orf40 cg18042079 (NT2/D1-R1 control cells): 0.207
Mean promoter methylation, C19orf30 cg07456645 (NT2/D1-R1 control cells): 0.552
Mean promoter methylation, C20orf29 cg09158909 (NT2/D1-R1 control cells): 0.322
Mean promoter methylation, C22orf9 cg11221513 (NT2/D1-R1 control cells): 0.402
Mean promoter methylation, CACNA1G cg18454685 (NT2/D1-R1 control cells): 0.587
Mean promoter methylation, CAMKK2 cg01369981 (NT2/D1-R1 control cells): 0.344
Mean promoter methylation, CART cg23300372 (NT2/D1-R1 control cells): 0.445
Mean promoter methylation, CCKBR cg13346411 (NT2/D1-R1 control cells): 0.411
Mean promoter methylation, CDC42EP1 cg13951472 (NT2/D1-R1 control cells): 0.342
Mean promoter methylation, CDKN2A cg10895543 (NT2/D1-R1 control cells): 0.249
Mean promoter methylation, CHST8 cg24739326 (NT2/D1-R1 control cells): 0.660
Mean promoter methylation, CPSF1 cg20326853 (NT2/D1-R1 control cells): 0.408
Mean promoter methylation, CSMD1 cg22619018 (NT2/D1-R1 control cells): 0.365
Mean promoter methylation, DCTN3 cg22579849 (NT2/D1-R1 control cells): 0.613
Mean promoter methylation, DDX42 cg05797656 (NT2/D1-R1 control cells): 0.226
Mean promoter methylation, DGKD cg25506396 (NT2/D1-R1 control cells): 0.238
Mean promoter methylation, DGKI cg06277657 (NT2/D1-R1 control cells): 0.365
Mean promoter methylation, DKK2 cg01404615 (NT2/D1-R1 control cells): 0.819
Mean promoter methylation, DUSP8 cg02271621 (NT2/D1-R1 control cells): 0.296
Mean promoter methylation, EHD2 cg12603043 (NT2/D1-R1 control cells): 0.398
Mean promoter methylation, ELK1 cg21860846 (NT2/D1-R1 control cells): 0.343
Mean promoter methylation, EMP3 cg01795122 (NT2/D1-R1 control cells): 0.187
Mean promoter methylation, EYA4 cg01805282 (NT2/D1-R1 control cells): 0.360
Mean promoter methylation, FAM70B cg15350194 (NT2/D1-R1 control cells): 0.396
Mean promoter methylation, FAM73B cg00729541 (NT2/D1-R1 control cells): 0.365
Mean promoter methylation, FCHSD2 cg17114257 (NT2/D1-R1 control cells): 0.423
Mean promoter methylation, FLJ20273 cg01704534 (NT2/D1-R1 control cells): 0.410
Mean promoter methylation, FLJ20273 cg15967525 (NT2/D1-R1 control cells): 0.759
Mean promoter methylation, FLJ42486 cg03734874 (NT2/D1-R1 control cells): 0.711
Mean promoter methylation, GAB3 cg12938998 (NT2/D1-R1 control cells): 0.347
